Experimental data from a melting point compilation (Tetko et al.; mined from patent text by program, amines drawn as free bases though some values may be those of a salt).

melting point | SMILES
249 to 250 °C | O=S1(=O)NC(C2CCCCC2)Nc2ccc(-c3ccccc3F)cc21 (stereo unspecified)
179 to 180 °C | CCCC(=O)c1cnc2c(C(=O)O)cccc2c1Nc1ccccc1C
177 to 179 °C | CCCS(=O)(=O)Cc1cccc(-c2nc(=O)c3ccccc3s2)n1
238 to 240 °C | CN1c2ccc(Cl)cc2NC(=S)c2cscc21
255 °C | CC12CCC(C(=O)O)=CC1=CCC1C2CCC2(C)C(C(=O)c3ccc(F)cc3)CCC12 (stereo unspecified)
56 to 58 °C | Cc1c(Cl)nnc(Cl)c1C(C)(C)CCl
201 to 202 °C | O=C(NCCCO)c1ccnc2ccccc12
229 to 230 °C | CCOC(=O)c1cnc(Nc2cccc(C(F)(F)F)c2)[nH]c1=O
166 to 167 °C | O=C(Cc1ccccc1)N[C@@H]1C(=O)N2C[C@@H](O)CS[C@H]12
92 to 94 °C | O=Cc1ccc(OCC2CN(Cc3ccccc3)c3ccccc3O2)cc1 (stereo unspecified)
116 to 119 °C | COc1ccccc1N1CCC(CNCC2COc3cccc(O)c3O2)CC1 (stereo unspecified)
140 °C | O=C(CCOCc1ccccc1)Nc1ccc(C(=O)Nc2ccccc2[N+](=O)[O-])cc1
282 °C | Oc1nc(-c2ccc(Cl)cc2)nc2c1CCC2
218 to 219 °C | CCOc1ccc(NC(=O)c2c[nH]c3c2C(=O)C(C)(C)CC3)c(F)c1
84 to 86 °C | N#Cc1ccccc1Oc1ccc(Cl)cc1
52 to 55 °C | c1ccc2c(Cn3ccnc3)noc2c1
180 to 181 °C | O=C(Nc1c[nH]nc1C(=O)NCC(O)Cc1ccccc1)c1ccccn1 (stereo unspecified)
226 to 229 °C | CN1CCN(C2CCN(c3ccc(Nc4ncc5cc6ccccc6n5n4)cc3)CC2)CC1
106 to 108 °C | COc1cc(C(=O)C#CCOC(=O)c2cc(OC)c(OC)c(OC)c2)cc(OC)c1OC
163 to 165 °C | CCOC(=O)C1=C(C)NC(=S)N(C(=O)OCC)C1c1ccc([N+](=O)[O-])cc1 (stereo unspecified)
159 to 160 °C | CCOC(=O)c1cccc(-n2nc(C(=O)OCC)c3csc(N)c3c2=O)c1
190 °C | N#Cc1c(SC(F)(F)F)c(NC(=O)C(F)(F)F)n(-c2c(Cl)cc(C(F)(F)F)cc2Cl)c1Cl

melting point | SMILES
64 to 67 °C | CC(C)(C)OC(=O)N1CCC[C@@H](O)[C@H](N)C1
182 to 187 °C | O=C1CC(O)c2ccccc21 (stereo unspecified)
120 to 121 °C | COc1cc(C=Cc2c(CO)ccc(OC)c2OC)cc(OC)c1OC
177 to 180 °C | O=c1[nH]c(=O)n(C2CC(F)C(CF)O2)cc1C=CBr (stereo unspecified)
148 to 150 °C | CC(C)C(OC(=O)/C=C/c1ccccc1)OC(=O)NC1(C(=O)O)CC1 (stereo unspecified)
182 to 183 °C | COc1cc(OC)nc(NC(=O)NS(=O)(=O)c2ccccc2-c2nccn2C)n1
179 to 182 °C | COC(=O)N[C@@H](Cc1ccc(OCc2ccccc2)cc1)C(=O)Nc1c(C(C)C)cccc1C(C)C
134 to 135 °C | CCCc1nc(-n2cccc2)c(C(=O)OCC)[nH]1
234 to 235 °C | O=C(c1c[nH]c2cc(F)ccc12)C(F)(F)F
203 to 204 °C | O=C(O)c1cn(C2CC2)c2nc(N3CCC(c4ccccn4)C3)c(F)cc2c1=O (stereo unspecified)
171 to 174 °C | O=C(Nc1cccc(C(F)(F)F)c1)C12CC3CC(CC(C3)C1)C2
235 to 237 °C | O=C(O)Cc1ccc(C(=O)O)cc1
69 to 70 °C | COc1cc(CCCC(=O)O)ccc1C
90 to 92 °C | CN1CC(c2cccc(C(F)(F)F)c2)C(=O)C(c2ccccc2Cl)C1 (stereo unspecified)
192 to 194 °C | CC(=Cc1ccc(C(F)(F)F)cc1)C1OCC(S(=O)Cc2ccc(Cl)cc2)CO1 (stereo unspecified)
146 to 147 °C | NC1=NN(c2cccc(F)c2)CC1
258 to 260 °C | COc1ccc(-n2nc(Sc3ccc([N+](=O)[O-])cc3)c(C)c(C#N)c2=O)cc1
136 to 137 °C | O=C(c1ccc(C(=O)N2CCC[C@@H]3CCCC[C@H]32)cc1)N1CCCCC1 (relative stereo)
190 to 192 °C | Cc1cc(Cl)cc2c1OC(C)(C)C(/C=C/C=C/C=C/C(=O)O)=C2
205 °C | CC(=O)Nc1ccc(NC(=O)OCc2ccccc2)c(O)c1
251 °C | CCSCc1ccc(CC(N)C(=O)O)cc1 (racemic)
152 °C | CCSc1ccc(NC(=S)NC(=O)OC)c([N+](=O)[O-])c1

melting point | SMILES
187 to 188 °C | CC(=O)Nc1c(C(=S)c2ccc(C)cc2)[nH]c2cc(Cl)ccc12
98 °C | COc1cc(CBr)ccc1[N+](=O)[O-]
251 to 252 °C | O=C(NCc1cc(C(F)(F)F)cc(C(F)(F)F)c1)c1c(-c2ccccc2)c2ccccc2[nH]c1=O
127 to 128 °C | CC(C)(C)c1cc(Nc2cccc(OCC(=O)O)c2)cc(C(C)(C)C)c1O
201 to 203 °C | Cn1cc(C(=O)O)cc1Cl
118 to 119 °C | CCCc1nn(-c2ccc(C(F)(F)F)cn2)cc1CCCOc1ccc(CCC(=O)O)cc1
107 to 109 °C | COC(=O)CC/C(C)=C/Cc1c(NC(=O)C(F)(F)F)c2c(c(C)c1OC)COC2=O
184 to 185 °C | COc1ccc(C2C(=O)N(c3ccccc3)N(c3ccccc3)C2=O)cc1
127 to 128 °C | CCOc1cc2c(c3c1OC(C)(C)C3)C(c1cccc(C(=O)NCC(N)=O)c1)=NC(C)(C)C2
86 to 87 °C | C[C@@H]1CN(C(=O)[C@@](C)(O)C(F)(F)F)[C@@H](C)CN1S(=O)(=O)c1ccc(C(=O)N(C)C)cc1
> 320 °C | O=C(O)c1ccc(NC(=O)c2ccc(-c3ccccc3)cc2)cc1
222 to 224 °C | O=C(Nc1nnn(CC2CC2)n1)C1c2ccccc2Oc2ccccc21
122 °C | CC(C)(C)Sc1c(CC(C)(C)C(=O)O)n(Cc2ccc(Cl)cc2)c2ccc(OCc3ccc4cccnc4n3)cc12
97 to 98 °C | COc1cccc(-c2ccccc2)c1C(O)=S
119 to 121 °C | CCCCCCSCCSCCSc1nc2nc(C)cc(O)n2n1
120 to 126 °C | Cc1cc(C(=O)O)cc(C)c1OCCNC(=O)C1Cc2ccccc2N1S(=O)(=O)c1ccc(-c2cccc(C(F)(F)F)c2)cc1 (stereo unspecified)
104 to 105 °C | COC(=O)COc1ccc(NC(=O)c2cc(C(C)C)c(C(C)C)o2)cc1
56 to 57 °C | CC(C)(C)OC(=O)COc1ccc(C=O)cc1
189 to 191 °C | O=[N+]([O-])c1ccc(S(=O)(=O)N2CCN(c3ccc(F)cc3)CC2)cc1
167 to 174 °C | O=C(c1ccco1)N1CCN(Cc2ccc(-c3cc4ncnc(Nc5ccc6[nH]ccc6c5)c4s3)cc2)CC1
132 to 134 °C | CC(C)(C)OC(=O)N1C[C@@H](CC(=O)C(=[N+]=[N-])C(=O)OCc2ccc([N+](=O)[O-])cc2)[C@H]2NC(=O)[C@H]21
232 to 234 °C | COC(=O)/C=C/c1ccc2nn(C)cc2c1C(=O)OC

SMILES | melting point
CCOC(=O)c1c(C)cc2nc(COC(=O)NCCO)n(-c3ccccc3S(=O)(=O)NC)c(=O)c2c1C | 122 to 125 °C
CCOC(=O)C1(c2ccccc2)CCN(CCO)CC1 | 91.5 to 93 °C
CC(C)(CNC(=O)CN1CCCC1=O)N1CCCCC1 | 69 °C
COc1cc(C2c3cc4c(cc3C(NC3=C(C)C(=O)N(C)C3=O)C3COC(=O)C23)OCO4)cc(OC)c1O (stereo unspecified) | 172 to 176 °C
COC(=O)c1ccc(Cn2nc(C(N)=O)c3ccccc32)cc1 | 163 to 165 °C
